Data as given in patent publication US11066447B2, “Aureobasidium derivatives and methods of synthesis” (AureoGen Biosciences, Inc., priority 2016, dated 2021).
≈ marks a conversion by molar mass, not a printed value. Where two headings read alike, the source gives them in different places. Numbered stars: 1 amine (or outer) side, 2 acyl side, 3 side chain; on linkers, the order of the positions; unused ones are H or OH. Square brackets hold non-standard residues; d marks the D form. Peptide text beside a SMILES is read from it. X3 = CN1CCN(c2ccc(-c3cccc(C[C@@H](C(=O)[*:2])N(C)[*:1])c3)cn2)CC1; X11 = CN([C@@H](Cc1cccc(-c2cccc3ncccc23)c1)C(=O)[*:2])[*:1]; X22 = CN([C@@H](Cc1cccc(-c2cncc3ccccc23)c1)C(=O)[*:2])[*:1]; Hmp(2R,3S) = CC[C@H](C)[C@@H](O)C(=O)O; NMeVal(β-OH) = CN[C@H](C(=O)O)C(C)(C)O; NMeV = CN[C@H](C(=O)O)C(C)C

Tests used:
[1] = system: C. albicans MMX 2000 ATCC 10231; test: MIC assay (CLSI microdilution); format: cell-based; conditions: Candida albicans
[2] = system: C. parapsilosis MMX 2323 ATCC 22019; test: MIC assay (CLSI microdilution); format: cell-based, Candida parapsilosis
Procedure, shortened: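 Broth microdilution MIC testing of Candida parapsilosis ATCC 22019 followed CLSI methods in RPMI-1640, with or without 0.002% Tween-80. Yeast grown 48 hours at 35° C on Sabouraud dextrose agar was suspended to a 0.5 McFarland standard and diluted 1:100 to roughly 0.5-2.5×10^3 CFU/mL. The MIC was the lowest concentration preventing visible growth.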

[3] = system: A. fumigatus MMX 5280 ATCC MYA-3626; test: MIC/MEC assay (CLSI microdilution); format: cell-based, Aspergillus fumigatus
Procedure, shortened: (§1)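 Aspergillus spore suspensions, diluted from counted stocks to a final approximately 0.2-2.5×10^4 CFU/mL, were inoculated into RPMI-1640 containing 0.002% Tween-80 holding two-fold drug dilutions. Compounds came from 95% ethanol, amphotericin B (0.06-64 μg/mL) from DMSO. MMX 5280 was also tested without Tween-80.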

A. flavus MMX 5948 = test: MIC/MEC assay (CLSI microdilution); format: cell-based; conditions: Aspergillus flavus, MMX5948, 48 h
Procedure, shortened: as §1

[4] = system: A. fumigatus MMX 6781 ATCC MYA-4609; test: MIC/MEC assay (CLSI microdilution); format: cell-based; conditions: Aspergillus fumigatus; for MIC: 48 h, RPMI plus 0.002% Tween-80, read-out: MIC; for minimal effective concentration: RPMI plus 0.002% Tween-80, 48 hr
Procedure, shortened: as §1

[5] = system: A. niger MMX 0624 ATCC 16888; test: MIC/MEC assay (CLSI microdilution); format: cell-based; conditions: Aspergillus niger, ATCC16888, 48 h
Procedure, shortened: as §1

[6] = system: A. fumigatus MMX 6782 ATCC 13073; test: MIC/MEC assay (CLSI microdilution); format: cell-based; conditions: Aspergillus fumigatus, ATCC13073, 48 h
Procedure, shortened: as §1

[7] = system: A. fumigatus from Aureogen; test: MIC/MEC assay (CLSI microdilution); format: cell-based; conditions: Aspergillus fumigatus, 48 h; for minimal effective concentration: RPMI plus 0.002% Tween-80; for MIC: RPMI plus 0.002% Tween-80, read-out: MIC
Procedure, shortened: as §1

A. fumigatus MMX 5944 = test: MIC/MEC assay (CLSI microdilution); format: cell-based; conditions: Aspergillus fumigatus, MMX5944, 48 h; for minimal effective concentration: RPMI plus 0.002% Tween-80; for MIC: RPMI plus 0.002% Tween-80, read-out: MIC
Procedure, shortened: as §1

[8] = system: C. neoformans MMX 0634 ATCC 90112; test: MIC assay (CLSI microdilution); format: cell-based; conditions: Cryptococcus neoformans, read-out: MIC
[9] = system: C. albicans MMX 2000 ATCC 10231; test: MIC assay (CLSI microdilution); format: cell-based; conditions: Candida albicans, ATCC10231, RPMI plus 0.002% Tween-80; read-out: MIC
[10] = ATCC22019, RPMI plus 0.002% Tween-80, read-out: MIC
[11] = ATCC22019, Without Tween-80, read-out: MIC
[12] = Aspergillus fumigatus, 48 h, RPMI plus 0.002% Tween-80, read-out: MEC
[13] = Aspergillus fumigatus, 48 h, RPMI plus 0.002% Tween-80, read-out: MIC
[14] = Aspergillus fumigatus, 48 h, Without Tween-80, read-out: MEC
[15] = Aspergillus fumigatus, 48 h, Without Tween-80, read-out: MIC
[16] = RPMI plus 0.002% Tween-80, read-out: MIC
[17] = RPMI plus 0.002% Tween-80, read-out: MEC
[18] = ATCC90112, RPMI plus 0.002% Tween-80
[19] = read-out: MEC, RPMI plus 0.002% Tween-80

CC[C@H](C)[C@@H]1NC(=O)[C@@H]2CCCN2C(=O)[C@H](Cc2cccc(-c3ccc(N4CCN(C)CC4)nc3)c2)N(C)C(=O)[C@H](Cc2ccccc2)NC(=O)[C@H](C(C)C)N(C)C(=O)[C@@H]([C@@H](C)CC)OC(=O)[C@H](C(C)(C)O)N(C)C(=O)[C@H](CC(C)C)NC(=O)[C@H](C(C)C)N(C)C1=O [Compound 20] (cyclo(F[X3]PI[NMeV]L[NMeVal(β-OH)][Hmp(2R,3S)][NMeV]))
MIC ([1]; ATCC10231, Without Tween-80, read-out: MIC): 0.5 µg/mL (≈ 0.392 µM)
MIC [2, 10]: 0.03 µg/mL
MIC [2, 11]: 1 µg/mL (≈ 0.783 µM)
MIC ([2]; Without Tween-80): 2 µg/mL (≈ 1.57 µM)
minimal effective concentration [3, 12]: 0.06 µg/mL
MIC [3, 13]: 0.25 µg/mL
minimal effective concentration [3, 14]: 0.5 µg/mL
MIC [3, 15]: 1 µg/mL (≈ 0.783 µM)
MEC ([3]; Without Tween-80, 48 hr): 1 µg/mL
MIC ([3]; Without Tween-80, 48 hr): 2 µg/mL (≈ 1.57 µM)
minimal effective concentration (A. flavus MMX 5948; RPMI plus 0.002% Tween-80): 0.008 µg/mL
MIC (A. flavus MMX 5948; [16]): 0.015 µg/mL
MIC [4]: 0.12 µg/mL
minimal effective concentration [4]: 0.06 µg/mL
minimal effective concentration [5, 17]: 0.008 µg/mL
MIC [5, 16]: 0.015 µg/mL
minimal effective concentration [6, 17]: 0.03 µg/mL
MIC [6, 16]: 0.12 µg/mL
minimal effective concentration [7]: 0.03 µg/mL
MIC [7]: 0.12 µg/mL
minimal effective concentration (A. fumigatus MMX 5944): 0.015 µg/mL
MIC (A. fumigatus MMX 5944): 0.12 µg/mL
MIC ([8]; ATCC90112, 72 h, 72 hour, RPMI plus 0.002% Tween-80): 0.12 µg/mL
MIC [8, 18]: 0.03 µg/mL
MIC [9]: 8 ng/mL

CC[C@H](C)[C@@H]1NC(=O)[C@@H]2CCCN2C(=O)[C@H](Cc2cccc(-c3cccc4ncccc34)c2)N(C)C(=O)[C@H](Cc2ccccc2)NC(=O)[C@H](C(C)C)N(C)C(=O)[C@@H]([C@@H](C)CC)OC(=O)[C@H](C(C)(C)O)N(C)C(=O)[C@H](CC(C)C)NC(=O)[C@H](C(C)C)N(C)C1=O [Compound 28] (cyclo(F[X11]PI[NMeV]L[NMeVal(β-OH)][Hmp(2R,3S)][NMeV]))
MIC ([1]; ATCC10231, RPMI plus 0.002% Tween-80): 0.015 µg/mL
MIC ([2]; ATCC22019, RPMI plus 0.002% Tween-80): 0.06 µg/mL
MIC ([2]; ATCC22019, Without Tween-80): 0.5 µg/mL (≈ 0.407 µM)
minimal effective concentration ([3]; Aspergillus fumigatus, 48 h, read-out: MEC, RPMI plus 0.002% Tween-80): > 64 µg/mL
minimal effective concentration ([3]; Aspergillus fumigatus, 48 h, read-out: MEC, Without Tween-80): > 64 µg/mL
MIC ([3]; Without Tween-80, 48 hr): >64/>64 μg/mL
MIC (A. flavus MMX 5948; RPMI plus 0.002% Tween-80): > 64 µg/mL
MIC ([5]; RPMI plus 0.002% Tween-80): 0.12 µg/mL
minimal effective concentration [5, 19]: 0.12 µg/mL
MIC ([6]; RPMI plus 0.002% Tween-80): > 64 µg/mL
minimal effective concentration [6, 19]: > 64 µg/mL

CC[C@H](C)[C@@H]1NC(=O)[C@@H]2CCCN2C(=O)[C@H](Cc2cccc(-c3cncc4ccccc34)c2)N(C)C(=O)[C@H](Cc2ccccc2)NC(=O)[C@H](C(C)C)N(C)C(=O)[C@@H]([C@@H](C)CC)OC(=O)[C@H](C(C)(C)O)N(C)C(=O)[C@H](CC(C)C)NC(=O)[C@H](C(C)C)N(C)C1=O [Compound 29] (cyclo(F[X22]PI[NMeV]L[NMeVal(β-OH)][Hmp(2R,3S)][NMeV]))
MIC [2, 10]: 0.06 µg/mL
MIC [2, 11]: 1 µg/mL (≈ 0.814 µM)
minimal effective concentration [3, 12]: > 64 µg/mL
MIC [3, 13]: > 64 µg/mL
minimal effective concentration [3, 14]: > 64 µg/mL
MIC [3, 15]: > 64 µg/mL
minimal effective concentration (A. flavus MMX 5948; RPMI plus 0.002% Tween-80): > 64 µg/mL
MIC (A. flavus MMX 5948; [16]): > 64 µg/mL
MIC [4]: > 64 µg/mL
minimal effective concentration [4]: > 64 µg/mL
minimal effective concentration [5, 17]: 0.12 µg/mL
MIC [5, 16]: 0.12 µg/mL
MIC [6, 16]: > 64 µg/mL
minimal effective concentration [7]: > 64 µg/mL
MIC [7]: > 64 µg/mL
minimal effective concentration (A. fumigatus MMX 5944): > 64 µg/mL
MIC (A. fumigatus MMX 5944): > 64 µg/mL
MIC [8, 18]: 0.06 µg/mL
MIC [9]: 8 ng/mL
